Data as given in patent publication US20240300959A1, “BALASUBRAMIDE DERIVATIVE AND USE THEREOF IN PREPARATION OF MEDICINE FOR TREATING ACUTE LUNG INJURY” (Guangdong Pharmaceutical University, priority 2023, published 2024).

Legend:
[1] = system: mice with sepsis and lung injury caused by intraperitoneal injection of lipopolysaccharide; experiment: Acute lung injury caused by sepsis (intraperitoneal injection of lipopolysaccharide); format: in vivo, ICR mice; conditions: for Content of TNF-α in serum (% of Model) / Area percentage of alveolar cells (%): 6 h after i.p. LPS; for Area percentage of alveolar cells (%): H&E lung sections; for Change multiple of IL-1β / Change multiple of IL-6 / Change multiple of TNF-α / Change multiple of iNOS: lung tissue RT-PCR; for Lung index (%): 6 h after i.p. LPS 10 mg/kg; for Body weight (Day 1) / Body weight (Day 2) / Body weight (Day 3): i.p. LPS sepsis model, in g (unit assumed)
Description: Administration and grouping of animals: Male ICR mice were used as experimental animals, which were randomly divided into a control group, a model group, a positive administration group and administration groups according to the body weight. The control group and the model group were administered with a solvent by intraperitoneal injection (the solvent was prepared from DMSO, Kolliphor HS15 and Saline at a ratio of 1:2:7), the positive administration group was administered with 5 mg/kg dexamethasone (DEX) by intraperitoneal injection, and the administration groups were administered with (+)3C-20 at a concentration of 10 mg/kg and 50 mg/kg, respectively, by intraperitoneal injection. The dexamethasone and the (+)3C-20 were dissolved in the above solvent and were clear and transparent. The administration was continued for 3 days. 2 h after the last administration, all the other groups were administered with LPS (10 mg/kg) by intraperitoneal injection while the control group was administered with an equal volume of normal saline by intraperitoneal injection. Body weight and lung index: The mice were weighed and randomly divided on day 1 and continuously weighed for 3 days before administration, and growth conditions of the mice were measured by statistics. The mice were administered with LPS by intraperitoneal injection 2 h after administration on day 3, then the mice were dissected 6 h later, and the lungs were taken, weighed and recorded.
On day 3, 6 h after the intraperitoneal injection of LPS, whole blood was collected from eye sockets and then subjected to centrifugation to prepare serum, and the serum was frozen at −80° C. The lungs were subjected to perfusion with PBS and fixed by paraformaldehyde, and the fixed lungs were stained with hematoxylin-eosin (H&E) after dehydration, paraffin embedding and sectioning. The serum was tested by a commercial TNF-α ELISA kit. Histopathological results and data statistics are shown in FIG. 7-1, FIG. 7-2 and Table 7.
A small amount of frozen lung tissues were taken and fully ground, and the expression of inflammation related genes in the lung tissues was detected by an RT-PCR technology according to an operation instruction of an RNA extraction kit.

[2] = system: mice with acute lung injury caused by intratracheal instillation of lipopolysaccharide; experiment: Acute lung injury caused by lung exposure to bacterial endotoxin (intratracheal instillation of LPS); format: in vivo, ICR mice; conditions: for Content of TNF-α in a lung tissue homogenate (% of Model) / Area percentage of alveolar cells (%) / Lung index (%): 6 h after intratracheal LPS; for Area percentage of alveolar cells (%): H&E lung sections; for Change multiple of COX-2 / Change multiple of IL-1β / Change multiple of IL-6 / Change multiple of TNF-α / Change multiple of iNOS: lung tissue RT-PCR; for Body weight (Day 1) / Body weight (Day 2) / Body weight (Day 3): intratracheal LPS model, in g (unit assumed)
Description: Grouping, administration and modeling of animals: Male ICR mice were used as experimental animals, which were randomly divided into a control group, a model group, a positive administration group and administration groups according to the body weight. The control group and the model group were administered with a solvent by intraperitoneal injection (the solvent was prepared from DMSO, Kolliphor HS15 and Saline at a ratio of 1:2:7), the positive administration group was administered with 5 mg/kg dexamethasone by intraperitoneal injection, and the administration groups were administered with (+)3C-20 at a concentration of 10 mg/kg and 50 mg/kg, respectively, by intraperitoneal injection. The dexamethasone and the (+)3C-20 were dissolved in the above solvent and were clear and transparent. The administration was continued for 3 days. 2 h after the last administration, the mice were anesthetized with 2.5% isoflurane, necks were disinfected, cortices of the necks were cut, and tracheae were separated. All other groups were administered with 50 μL of 10 mg/mL LPS (LPS dissolved in Saline) at a dose of 20 mg/kg by instillation while the control group was administered with 50 μL of Saline by intratracheal instillation (it.), and the cortices were sutured. 6 h after the instillation of LPS, the mice were sacrificed, and serum and lung tissues were taken for later use. Body weight and lung index: The mice were weighed and randomly divided on day 1 and continuously weighed for 3 days before administration. 2 h after the last administration, the mice were administered with 50 μL of […] LPS by intratracheal instillation. 6 h later, the mice were dissected, and the lungs were taken and weighed.
On day 3, 6 h after the intratracheal instillation of LPS, a part of the mice were subjected to perfusion with PBS and treated with paraformaldehyde to fix the right lobe of the lungs, another part of the mice were dissected to obtain lungs, and the lungs were frozen with liquid nitrogen for later use. The fixed right lungs were stained with hematoxylin-eosin (H&E) after dehydration, paraffin embedding and sectioning. 40 mg of the frozen lungs were cut, 300 μL of an RIPA lysis buffer was added thereto and homogenized by starting for 45 s and stopping for 15 s at a frequency of 60 Hz in 4 cycles for full lysis, and then centrifuged at 12,000 rpm at 4° C. A supernatant was taken, the protein concentration was calibrated and adjusted with a BCA protein assay kit, and then the level of an inflammatory factor TNF-α in lung tissue homogenates of various groups was detected by a commercial TNF-α ELISA kit. Results are shown in Table 10, FIG. 10-1 and FIG. 10-2.
A small amount of frozen lung tissues were taken, a Trizol lysis reagent was added thereto and fully ground, RNA was extracted according to an operation instruction of an RNA extraction kit, and the expression of inflammation related genes in the lung tissues was detected by an RT-PCR technology. Experimental results are shown in Table 11, FIG. 11-1 and FIG. 11-2.

[3] = 10 mg/kg intraperitoneal 3 days
[4] = 50 mg/kg intraperitoneal 3 days
[5] = 10 mg/kg i.p., intratracheal LPS
[6] = 50 mg/kg i.p., intratracheal LPS

O=C(CCc1ccc(C(F)(F)F)cc1)O[C@@H]1C(=O)NCCc2c([nH]c3ccccc23)[C@H]1c1ccc(C(F)(F)F)cc1 [(+)-3C-20]
Content of TNF-α in serum (% of Model) ([1]; 10 mg/kg i.p.): 78.38 ± 11.32 ^ % of Model | Area percentage of alveolar cells (%) ([1]; 10 mg/kg i.p.): 38.68 ± 3.73% | Change multiple of IL-1β ([1]; 10 mg/kg i.p., i.p. LPS): 9.68 ± 0.67 | Change multiple of IL-6 ([1]; 10 mg/kg i.p., i.p. LPS): 47.5 ± 7.38 | Change multiple of TNF-α ([1]; 10 mg/kg i.p., i.p. LPS): 10.58 ± 1.72 | Change multiple of iNOS ([1]; 10 mg/kg i.p., i.p. LPS): 12.44 ± 1.28 ^ | Lung index (%) [1, 3]: 0.714 ± 0.02 ^ % | Body weight (Day 1) ([1]; 10 mg/kg intraperitoneal): 25.42 ± 1.1 | Body weight (Day 2) ([1]; 10 mg/kg intraperitoneal): 25.46 ± 1.2 | Body weight (Day 3) ([1]; 10 mg/kg intraperitoneal): 25.77 ± 1.03 | Content of TNF-α in serum (% of Model) ([1]; 50 mg/kg i.p.): 55.06 ± 5.96 % of Model | Area percentage of alveolar cells (%) ([1]; 50 mg/kg i.p.): 30.43 ± 2.41 % | Change multiple of IL-1β ([1]; 50 mg/kg i.p., i.p. LPS): 10.13 ± 1.72 | Change multiple of IL-6 ([1]; 50 mg/kg i.p., i.p. LPS): 13.73 ± 1.56 | Change multiple of TNF-α ([1]; 50 mg/kg i.p., i.p. LPS): 5.55 ± 0.86 | Change multiple of iNOS ([1]; 50 mg/kg i.p., i.p. LPS): 5.42 ± 1.02 | Lung index (%) [1, 4]: 0.672 ± 0.014 % | Body weight (Day 1) ([1]; 50 mg/kg intraperitoneal): 25.34 ± 0.57 | Body weight (Day 2) ([1]; 50 mg/kg intraperitoneal): 26.16 ± 1.22 | Body weight (Day 3) ([1]; 50 mg/kg intraperitoneal): 27.01 ± 1.08 | pathological lung injury compared with the model group, in words ([1]; 50 mg/kg, i.p. LPS): obviously relieving pathological lung injury | Content of TNF-α in a lung tissue homogenate (% of Model) ([2]; 10 mg/kg i.p.): 90.587 ± 7.374 ^ % of Model | Area percentage of alveolar cells (%) ([2]; 10 mg/kg i.p.): 36.611 ± 1.64 % | Change multiple of COX-2 [2, 5]: 2.05 ± 0.38 | Change multiple of IL-1β [2, 5]: 13.04 ± 1.24 | Change multiple of IL-6 [2, 5]: 17.12 ± 2.28 | Change multiple of TNF-α [2, 5]: 13.32 ± 0.94 | Change multiple of iNOS [2, 5]: 4.56 ± 0.4 | Lung index (%) [2, 3]: 0.656 ± 0.007% | Body weight (Day 1) ([2]; 10 mg/kg intraperitoneal): 27.67 ± 0.38 | Body weight (Day 2) ([2]; 10 mg/kg intraperitoneal): 27.44 ± 0.43 | Body weight (Day 3) ([2]; 10 mg/kg intraperitoneal): 27.93 ± 0.53 | Content of TNF-α in a lung tissue homogenate (% of Model) ([2]; 50 mg/kg i.p.): 61.408 ± 6.525 % of Model | Area percentage of alveolar cells (%) ([2]; 50 mg/kg i.p.): 32.805 ± 0.814 % | Change multiple of COX-2 [2, 6]: 1.14 ± 0.24 | Change multiple of IL-1β [2, 6]: 11.94 ± 1.05 | Change multiple of IL-6 [2, 6]: 15.11 ± 1.58 | Change multiple of TNF-α [2, 6]: 8.56 ± 1.21 | Change multiple of iNOS [2, 6]: 3.75 ± 0.72 | Lung index (%) [2, 4]: 0.591 ± 0.011 % | Body weight (Day 1) ([2]; 50 mg/kg intraperitoneal): 27.63 ± 0.48 | Body weight (Day 2) ([2]; 50 mg/kg intraperitoneal): 27.04 ± 0.48 | Body weight (Day 3) ([2]; 50 mg/kg intraperitoneal): 27 ± 0.61 | pathological lung injury compared with the model group, in words ([2]; 50 mg/kg, intratracheal LPS): obviously relieving pathological lung injury
